According to patent US20110118350A1, “COMPOSITION FOR PREVENTING CARDIOVASCULAR EVENT IN HIGH-RISK PATIENT” (MOCHIDA PHARMACEUTICAL CO., LTD., priority 2008, published 2011):

Assay: Incidence of cardiovascular events for 5 years from the start of administration (DELIS partial analysis)
Type: in vivo, human
Conditions: for Ratio of incidence reduction (%): EPA-E vs control group; for Incidence (%) of cardiovascular events / Number of cardiovascular events: 5 years
Description: This trial corresponds to a partial analysis of the results obtained in DELIS (Japan EPA Lipid Intervention Study) which is a large scale clinical trial of high purity EPA preparation which was presented in the American College of Cardiology 2005 Annual Meeting (for general information on DELIS, see Lancet, vol. 369, pp. 1090-1098 (2007)). More specifically, of 18,645 subject patients of the DELIS trial (EPA group (9,326 cases) and control group (9,319 cases)), 15534 cases (sum of the control group and EPA group) were analyzed for the composition of plasma fatty acids and divided based on the average of the plasma OA/SA ratio during the whole observation period into three groups (i.e., a group having an OA/SA ratio of less than 2.6, a group having an OA/SA ratio of at least 2.6 but less than 3.0, and a group having an OA/SA ratio of at least 3.0) so that the three groups were approximately equal in number, and the groups were compared for the incidence of cardiovascular events for 5 years from the start of administration. The EPA group was orally administered with Epadel (EPA-E available from Mochida Pharmaceutical Co., Ltd.) typically at an adult dose of 600 mg per administration and 3 times a day immediately after the meal. However, in the case of abnormal serum TG, the dose could be increased to 900 mg per administration and 3 times a day depending on the degree of abnormality. In both groups, pravastatin sodium (Mevalotin™ tablets and fine granules, Daiichi Sankyo Co., Ltd.), simvastatin (Lipovas™ tablets, Banyu Pharmaceutical Co., Ltd.), or atorvastatin calcium hydrate (Lipitor™ tablets, Astellas Pharma Inc. and Pfizer Inc.) was used for the base drug, and these drugs were orally administered according to the prescribed dosage regimen. This trial corresponds to a partial analysis of the results obtained in DELIS as in Example 1. More specifically, primary prevention cases combined with secondary prevention cases, only primary prevention cases, and only secondary prevention cases were respectively divided into four groups based on the plasma OA level or the plasma SA level at the start of administration so that the four groups were approximately equal in number. The groups were compared for the incidence of cardiovascular events for 5 years from the start of administration.

[1] = primary + secondary prevention cases, Total (oleic acid grouping)
[2] = primary + secondary prevention cases, Total (stearic acid grouping)
[3] = primary + secondary prevention cases, oleic acid at start 22.1< mol %
[4] = primary + secondary prevention cases, oleic acid at start >18.2-20.1 mol %
[5] = primary + secondary prevention cases, oleic acid at start >20.1-22.1 mol %
[6] = primary + secondary prevention cases, oleic acid at start −18.2 mol %
[7] = primary + secondary prevention cases, stearic acid at start 7.35< mol %
[8] = primary + secondary prevention cases, stearic acid at start >6.46-6.89 mol %
[9] = primary + secondary prevention cases, stearic acid at start >6.89-7.35 mol %
[10] = primary + secondary prevention cases, stearic acid at start −6.46 mol %
[11] = primary prevention cases, Total (oleic acid grouping)
[12] = primary prevention cases, Total (stearic acid grouping)
[13] = primary prevention cases, oleic acid at start 21.9< mol %
[14] = primary prevention cases, oleic acid at start >18.1-19.9 mol %
[15] = primary prevention cases, oleic acid at start >19.9-21.9 mol %
[16] = primary prevention cases, oleic acid at start −18.1 mol %
[17] = primary prevention cases, stearic acid at start 7.33< mol %
[18] = primary prevention cases, stearic acid at start >6.46-6.89 mol %
[19] = primary prevention cases, stearic acid at start >6.89-7.33 mol %
[20] = primary prevention cases, stearic acid at start −6.46 mol %
[21] = secondary prevention cases, Total (oleic acid grouping)
[22] = secondary prevention cases, Total (stearic acid grouping)
[23] = secondary prevention cases, oleic acid at start 22.1< mol %
[24] = secondary prevention cases, oleic acid at start >18.2-20.1 mol %
[25] = secondary prevention cases, oleic acid at start >20.1-22.1 mol %
[26] = secondary prevention cases, oleic acid at start −18.2 mol %
[27] = secondary prevention cases, stearic acid at start 7.38< mol %
[28] = secondary prevention cases, stearic acid at start >6.46-6.90 mol %
[29] = secondary prevention cases, stearic acid at start >6.90-7.38 mol %
[30] = secondary prevention cases, stearic acid at start −6.46 mol %

SMILES: CC/C=C\C/C=C\C/C=C\C/C=C\C/C=C\CCCC(=O)OCC [EPA-E, ethyl icosapentate]
- Ratio of incidence reduction (%) [1]: 13.2%
- Ratio of incidence reduction (%) [2]: 13.2%
- Ratio of incidence reduction (%) [3]: 30.3%
- Ratio of incidence reduction (%) [4]: 14.6%
- Ratio of incidence reduction (%) [5]: −2.0%
- Ratio of incidence reduction (%) [6]: −5.3%
- Ratio of incidence reduction (%) [7]: 39.5%
- Ratio of incidence reduction (%) [8]: −13.9%
- Ratio of incidence reduction (%) [9]: 26.6%
- Ratio of incidence reduction (%) [10]: 1.8%
- Ratio of incidence reduction (%) [11]: 11.1%
- Ratio of incidence reduction (%) [12]: 11.1%
- Ratio of incidence reduction (%) [13]: 30.4%
- Ratio of incidence reduction (%) [14]: 26.1%
- Ratio of incidence reduction (%) [15]: −20.6%
- Ratio of incidence reduction (%) [16]: −12.2%
- Ratio of incidence reduction (%) [17]: 17.0%
- Ratio of incidence reduction (%) [18]: −17.3%
- Ratio of incidence reduction (%) [19]: 19.5%
- Ratio of incidence reduction (%) [20]: 22.0%
- Ratio of incidence reduction (%) [21]: 15.5%
- Ratio of incidence reduction (%) [22]: 15.5%
- Ratio of incidence reduction (%) [23]: 40.8%
- Ratio of incidence reduction (%) [24]: −3.4%
- Ratio of incidence reduction (%) [25]: 8.1%
- Ratio of incidence reduction (%) [26]: 3.0%
- Ratio of incidence reduction (%) [27]: 65.2%
- Ratio of incidence reduction (%) [28]: −19.9%
- Ratio of incidence reduction (%) [29]: 38.7%
- Ratio of incidence reduction (%) [30]: −26.0%
- effect on incidence and/or rate of recurrence of cardiovascular events (patients with an OA level exceeding 22.1 mol % or an SA level exceeding 7.38 mol %): reduced incidence and/or rate of recurrence of cardiovascular events
- Incidence (%) of cardiovascular events [1]: 3.8%
- Number of cardiovascular events [1]: 266
- Incidence (%) of cardiovascular events [2]: 3.8%
- Number of cardiovascular events [2]: 266
- Incidence (%) of cardiovascular events [3]: 4.7%
- Number of cardiovascular events [3]: 77
- Incidence (%) of cardiovascular events [4]: 3.1%
- Number of cardiovascular events [4]: 55
- Incidence (%) of cardiovascular events [5]: 4.4%
- Number of cardiovascular events [5]: 76
- Incidence (%) of cardiovascular events [6]: 3.3%
- Number of cardiovascular events [6]: 58
- Incidence (%) of cardiovascular events [7]: 2.5%
- Number of cardiovascular events [7]: 44
- Incidence (%) of cardiovascular events [8]: 4.9%
- Number of cardiovascular events [8]: 81
- Incidence (%) of cardiovascular events [9]: 3.2%
- Number of cardiovascular events [9]: 56
- Incidence (%) of cardiovascular events [10]: 4.8%
- Number of cardiovascular events [10]: 85
- Incidence (%) of cardiovascular events [11]: 2.5%
- Number of cardiovascular events [11]: 140
- Incidence (%) of cardiovascular events [12]: 2.5%
- Number of cardiovascular events [12]: 140
- Incidence (%) of cardiovascular events [13]: 2.8%
- Number of cardiovascular events [13]: 40
- Incidence (%) of cardiovascular events [14]: 1.9%
- Number of cardiovascular events [14]: 27
- Incidence (%) of cardiovascular events [15]: 3.2%
- Number of cardiovascular events [15]: 46
- Incidence (%) of cardiovascular events [16]: 1.8%
- Number of cardiovascular events [16]: 27
- Incidence (%) of cardiovascular events [17]: 1.9%
- Number of cardiovascular events [17]: 27
- Incidence (%) of cardiovascular events [18]: 3.1%
- Number of cardiovascular events [18]: 43
- Incidence (%) of cardiovascular events [19]: 2.4%
- Number of cardiovascular events [19]: 34
- Incidence (%) of cardiovascular events [20]: 2.4%
- Number of cardiovascular events [20]: 36
- Incidence (%) of cardiovascular events [21]: 10.2%
- Number of cardiovascular events [21]: 126
- Incidence (%) of cardiovascular events [22]: 10.2%
- Number of cardiovascular events [22]: 126
- Incidence (%) of cardiovascular events [23]: 9.5%
- Number of cardiovascular events [23]: 27
- Incidence (%) of cardiovascular events [24]: 8.7%
- Number of cardiovascular events [24]: 28
- Incidence (%) of cardiovascular events [25]: 11.5%
- Number of cardiovascular events [25]: 37
- Incidence (%) of cardiovascular events [26]: 11.2%
- Number of cardiovascular events [26]: 34
- Incidence (%) of cardiovascular events [27]: 4.3%
- Number of cardiovascular events [27]: 14
- Incidence (%) of cardiovascular events [28]: 14.2%
- Number of cardiovascular events [28]: 41
- Incidence (%) of cardiovascular events [29]: 6.9%
- Number of cardiovascular events [29]: 22
- Incidence (%) of cardiovascular events [30]: 16.4%
- Number of cardiovascular events [30]: 49
